Laboratory results taken from patent US10364247B2, “Preparation and use of novel protein kinase inhibitors” (Ruijin Hospital Affiliated to Shanghai Jiao Tong University …, priority 2015, dated 2019).

Tests used:
Assay type in all cases: cell-based, murine
[1] = molecular target: T1, BaF3-BCR/ABL (Homo sapiens, UniProt P00519); test: Antiproliferative activity, kinase-dependent Ba/F3 cells (MTT/MTS); conditions: 48 hours, cell viability, read-out: BCR/ABL IC50
T1 construct: fused on or other part: P11274 (Breakpoint cluster region protein)
Experimental: (§1) Following up on the kinome data, the ability of compounds disclosed in the present invention to inhibit proliferation of cells that are dependent on selected protein kinases was tested. […] In addition, compounds were assayed to measure their capacity to inhibit TIE1, LYN, EML4-ALK, INSR and HCK kinases.
(§2) The murine cell line used is the BaF/3 cell line transformed with BCR/ABL cDNA (BaF/3-p210) or BCR/ABL-T315I mutant (Ba/F3-p210-T315I). These cells are maintained in RPMI/10% fetal calf serum (RPMI/FCS) supplemented with penicillin 50 μg/mL, streptomycin 50 μg/mL and L-glutamine […]. Untransformed BaF/3 cells (Wt-BaF/3) are similarly maintained with the addition of 15% of WEHI conditioned medium as a source of IL3.
(§3) Cells were seeded at a density of 20,000 cells/well into 96-well plates.
(§4) The background control wells to which media with no cells added and the vehicle control wells were included on each plate in triplicate. Cell viability was determined using MTT (Sigma, St. Louis, Mo., USA) and MTS (Promega, Madison, Wis., USA), according to the manufacturer's instructions. Results were analyzed using GraphPad Prism 5.0 (GraphPad Software, San Diego, Calif.) and IC50 values were calculated from cell viability dose-response curves and defined as the concentration of compound needed to reduce cell viability to 50% of a vehicle control (DMSO) (Table 3).

[2] = test system: BaF3-NRASD12; test: Oncogenic RAS dependent cell proliferation (CellTiter Glo); conditions: Mus musculus, BaF3-NRASD12 cells, 48 hours, read-out: NRas-BaF3 IC50
Experimental: (§5) The BaF/3 cell line transformed with oncogenic NRAS or KRAS (BaF/3-NRASD12 or BaF/3-KRASD12) and the parental BaF/3 cells were used to measure the abilities of compounds of the invention to suppress RAS transformation (Table 5). Cells were seeded at a density of 5000 cells/well into 96-well plates. […] The background control wells to which media with no cells added and the vehicle control wells were included on each plate in triplicate. Cell viability was determined using CellTiter Glo Assay (Promega) according to manufacture's instruction with a minor modification of diluting 1 part CellTiter Glo reagent to 4 parts phosphate buffered saline (PBS) before use. The luminescence value was read out by an Envision (PerkinElmer).

[3] = test system: BaF3-KRASD12; test: as above; conditions: Mus musculus, BaF3-KRASD12 cells, 48 hours, read-out: KRas-BaF3 IC50
Experimental: as §5

[4] = test system: Wt-BaF3; test: Parental Ba/F3 cell proliferation (CellTiter Glo); conditions: Mus musculus, parental BaF/3 cells, 48 hours
Experimental: as §2, §5

[5] = molecular target: T2, BaF3-TEL-LYN (Homo sapiens, UniProt P07948); test: Antiproliferative activity, kinase-dependent Ba/F3 cells (MTT/MTS); conditions: 48 hours, cell viability, read-out: tel-LYN IC50
T2 construct: fused on or other part: P41212 (Transcription factor ETV6)
Experimental: as §1, §2, §3, §4
(§6) Cell proliferation assays of compounds of the invention against TIE1, LYN, EML4-ALK, INSR and Hck were conducted using identical methods as described above for BCR/ABL, except that BaF3-TEL-TIE1, BaF3-TEL-LYN, BaF3-EML4-ALK, BaF3-TEL-INSR, and BaF3-TEL-HCK are used instead of BaF3-BCR/ABL (Table 3 and 4).

[6] = molecular target: T3, BaF3-TEL-TIE1 (Homo sapiens, UniProt P35590); test: as above; conditions: 48 hours, cell viability, read-out: tel-TIE1 IC50
T3 construct: fused on or other part: P41212 (Transcription factor ETV6)
Experimental: as §1, §2, §3, §4, §6

[7] = molecular target: T4, BaF3-TEL-INSR (Homo sapiens, UniProt P06213); test: as above; conditions: 48 hours, cell viability, read-out: Tel-INSR IC50
T4 construct: fused on or other part: P41212 (Transcription factor ETV6)
Experimental: as §1, §2, §3, §4, §6

[8] = molecular target: T5, BaF3-EML4-ALK (Homo sapiens, UniProt Q9UM73); test: as above; conditions: 48 hours, cell viability, read-out: EML4-ALK IC50
T5 construct: fused on or other part: Q9HC35 (Echinoderm microtubule-associated protein-like 4)
Experimental: as §1, §2, §3, §4, §6

[9] = molecular target: T6, BaF3-TEL-HCK (Homo sapiens, UniProt P08631); test: as above; conditions: 48 hours, cell viability, read-out: Tel-HCK IC50
T6 construct: fused on or other part: P41212 (Transcription factor ETV6)
Experimental: as §1, §2, §3, §4, §6

[10] = molecular target: T7, BaF3-BCR/ABL-T315I (Homo sapiens, UniProt P00519, T315I, cells depend on it); test: as above; conditions: 48 hours, cell viability, read-out: BCR/ABL T315I IC50
T7 construct: fused on or other part: P11274 (Breakpoint cluster region protein)
Experimental: as §1, §2, §3, §4

T2 sequence (P07948 whole entry, change not shown, the tested form may be a part): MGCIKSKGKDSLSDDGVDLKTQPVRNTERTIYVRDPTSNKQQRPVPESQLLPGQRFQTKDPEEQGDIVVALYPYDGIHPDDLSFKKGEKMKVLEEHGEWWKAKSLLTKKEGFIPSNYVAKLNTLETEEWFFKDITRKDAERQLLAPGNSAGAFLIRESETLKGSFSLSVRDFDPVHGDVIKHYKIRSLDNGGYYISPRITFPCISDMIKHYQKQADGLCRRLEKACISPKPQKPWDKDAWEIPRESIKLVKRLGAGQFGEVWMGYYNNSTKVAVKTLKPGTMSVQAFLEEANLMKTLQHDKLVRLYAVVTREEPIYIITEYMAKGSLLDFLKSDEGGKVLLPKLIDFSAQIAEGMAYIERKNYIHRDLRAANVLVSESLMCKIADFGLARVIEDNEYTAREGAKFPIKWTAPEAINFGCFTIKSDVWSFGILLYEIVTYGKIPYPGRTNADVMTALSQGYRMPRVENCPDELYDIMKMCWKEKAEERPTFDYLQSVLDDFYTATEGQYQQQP
T3 sequence (P35590 whole entry, change not shown, the tested form may be a part): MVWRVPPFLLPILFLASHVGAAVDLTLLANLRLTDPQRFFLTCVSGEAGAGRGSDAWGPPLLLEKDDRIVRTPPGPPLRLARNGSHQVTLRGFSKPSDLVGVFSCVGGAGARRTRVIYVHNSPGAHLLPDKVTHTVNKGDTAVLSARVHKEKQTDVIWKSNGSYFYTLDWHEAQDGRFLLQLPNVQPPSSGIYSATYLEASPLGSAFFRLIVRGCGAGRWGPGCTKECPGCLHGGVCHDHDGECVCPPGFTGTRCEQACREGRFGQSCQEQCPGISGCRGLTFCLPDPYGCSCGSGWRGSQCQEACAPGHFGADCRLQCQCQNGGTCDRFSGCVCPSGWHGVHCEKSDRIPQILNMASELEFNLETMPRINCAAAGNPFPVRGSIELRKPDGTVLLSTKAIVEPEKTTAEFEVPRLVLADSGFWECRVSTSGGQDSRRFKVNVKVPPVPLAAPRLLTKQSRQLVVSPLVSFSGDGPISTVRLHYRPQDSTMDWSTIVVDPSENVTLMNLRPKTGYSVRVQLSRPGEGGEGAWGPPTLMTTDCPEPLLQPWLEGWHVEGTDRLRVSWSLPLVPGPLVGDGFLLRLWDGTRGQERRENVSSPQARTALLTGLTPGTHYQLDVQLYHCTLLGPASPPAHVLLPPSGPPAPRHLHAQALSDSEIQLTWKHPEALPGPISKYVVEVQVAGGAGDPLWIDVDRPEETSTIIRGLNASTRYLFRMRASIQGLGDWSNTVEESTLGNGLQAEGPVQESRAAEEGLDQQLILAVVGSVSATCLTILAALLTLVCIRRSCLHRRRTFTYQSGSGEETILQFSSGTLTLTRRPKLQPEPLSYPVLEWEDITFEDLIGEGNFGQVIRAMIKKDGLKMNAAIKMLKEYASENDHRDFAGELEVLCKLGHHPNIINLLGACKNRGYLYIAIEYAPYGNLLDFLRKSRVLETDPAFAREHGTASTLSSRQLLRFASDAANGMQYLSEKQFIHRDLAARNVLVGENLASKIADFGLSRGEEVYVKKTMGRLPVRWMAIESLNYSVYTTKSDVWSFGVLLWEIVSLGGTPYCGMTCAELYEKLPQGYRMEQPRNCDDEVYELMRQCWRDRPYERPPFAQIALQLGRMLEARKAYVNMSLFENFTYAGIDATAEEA
T4 sequence (P06213 whole entry, stated change not applied, the tested form may be a part): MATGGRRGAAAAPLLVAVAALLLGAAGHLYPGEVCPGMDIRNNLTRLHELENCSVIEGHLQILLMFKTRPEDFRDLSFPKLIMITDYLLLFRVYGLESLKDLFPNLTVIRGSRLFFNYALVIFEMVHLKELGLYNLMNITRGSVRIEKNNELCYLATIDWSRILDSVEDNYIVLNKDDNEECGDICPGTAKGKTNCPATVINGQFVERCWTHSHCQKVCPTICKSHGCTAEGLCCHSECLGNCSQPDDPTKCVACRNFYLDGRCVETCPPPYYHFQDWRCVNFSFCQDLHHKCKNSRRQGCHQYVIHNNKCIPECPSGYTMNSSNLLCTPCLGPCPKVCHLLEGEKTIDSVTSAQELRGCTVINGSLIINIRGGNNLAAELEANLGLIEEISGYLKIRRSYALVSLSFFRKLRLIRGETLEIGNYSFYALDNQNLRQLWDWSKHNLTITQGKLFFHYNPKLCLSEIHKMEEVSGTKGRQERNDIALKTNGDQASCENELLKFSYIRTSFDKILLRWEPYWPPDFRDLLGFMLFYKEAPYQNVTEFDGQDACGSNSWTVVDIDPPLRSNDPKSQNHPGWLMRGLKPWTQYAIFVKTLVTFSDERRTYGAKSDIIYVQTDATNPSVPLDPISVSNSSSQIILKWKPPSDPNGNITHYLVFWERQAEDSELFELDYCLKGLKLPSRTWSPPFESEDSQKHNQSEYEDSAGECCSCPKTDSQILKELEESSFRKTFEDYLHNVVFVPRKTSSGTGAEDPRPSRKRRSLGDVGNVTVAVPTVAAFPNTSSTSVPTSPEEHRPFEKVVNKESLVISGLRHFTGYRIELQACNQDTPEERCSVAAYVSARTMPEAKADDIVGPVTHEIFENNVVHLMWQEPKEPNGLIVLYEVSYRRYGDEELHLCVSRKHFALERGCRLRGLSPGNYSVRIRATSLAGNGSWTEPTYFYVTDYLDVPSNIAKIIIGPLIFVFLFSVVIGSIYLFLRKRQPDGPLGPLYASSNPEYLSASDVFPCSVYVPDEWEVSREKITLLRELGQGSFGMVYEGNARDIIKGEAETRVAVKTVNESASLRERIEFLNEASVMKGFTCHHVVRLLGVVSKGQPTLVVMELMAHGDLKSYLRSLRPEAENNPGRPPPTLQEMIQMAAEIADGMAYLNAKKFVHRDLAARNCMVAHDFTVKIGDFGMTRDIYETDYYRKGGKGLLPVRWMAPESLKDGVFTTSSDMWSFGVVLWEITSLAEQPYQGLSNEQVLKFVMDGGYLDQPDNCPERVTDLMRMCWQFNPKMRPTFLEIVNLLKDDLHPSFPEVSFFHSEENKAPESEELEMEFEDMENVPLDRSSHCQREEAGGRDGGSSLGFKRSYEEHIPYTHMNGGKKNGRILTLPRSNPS
T5 sequence (Q9UM73 whole entry, change not shown, the tested form may be a part): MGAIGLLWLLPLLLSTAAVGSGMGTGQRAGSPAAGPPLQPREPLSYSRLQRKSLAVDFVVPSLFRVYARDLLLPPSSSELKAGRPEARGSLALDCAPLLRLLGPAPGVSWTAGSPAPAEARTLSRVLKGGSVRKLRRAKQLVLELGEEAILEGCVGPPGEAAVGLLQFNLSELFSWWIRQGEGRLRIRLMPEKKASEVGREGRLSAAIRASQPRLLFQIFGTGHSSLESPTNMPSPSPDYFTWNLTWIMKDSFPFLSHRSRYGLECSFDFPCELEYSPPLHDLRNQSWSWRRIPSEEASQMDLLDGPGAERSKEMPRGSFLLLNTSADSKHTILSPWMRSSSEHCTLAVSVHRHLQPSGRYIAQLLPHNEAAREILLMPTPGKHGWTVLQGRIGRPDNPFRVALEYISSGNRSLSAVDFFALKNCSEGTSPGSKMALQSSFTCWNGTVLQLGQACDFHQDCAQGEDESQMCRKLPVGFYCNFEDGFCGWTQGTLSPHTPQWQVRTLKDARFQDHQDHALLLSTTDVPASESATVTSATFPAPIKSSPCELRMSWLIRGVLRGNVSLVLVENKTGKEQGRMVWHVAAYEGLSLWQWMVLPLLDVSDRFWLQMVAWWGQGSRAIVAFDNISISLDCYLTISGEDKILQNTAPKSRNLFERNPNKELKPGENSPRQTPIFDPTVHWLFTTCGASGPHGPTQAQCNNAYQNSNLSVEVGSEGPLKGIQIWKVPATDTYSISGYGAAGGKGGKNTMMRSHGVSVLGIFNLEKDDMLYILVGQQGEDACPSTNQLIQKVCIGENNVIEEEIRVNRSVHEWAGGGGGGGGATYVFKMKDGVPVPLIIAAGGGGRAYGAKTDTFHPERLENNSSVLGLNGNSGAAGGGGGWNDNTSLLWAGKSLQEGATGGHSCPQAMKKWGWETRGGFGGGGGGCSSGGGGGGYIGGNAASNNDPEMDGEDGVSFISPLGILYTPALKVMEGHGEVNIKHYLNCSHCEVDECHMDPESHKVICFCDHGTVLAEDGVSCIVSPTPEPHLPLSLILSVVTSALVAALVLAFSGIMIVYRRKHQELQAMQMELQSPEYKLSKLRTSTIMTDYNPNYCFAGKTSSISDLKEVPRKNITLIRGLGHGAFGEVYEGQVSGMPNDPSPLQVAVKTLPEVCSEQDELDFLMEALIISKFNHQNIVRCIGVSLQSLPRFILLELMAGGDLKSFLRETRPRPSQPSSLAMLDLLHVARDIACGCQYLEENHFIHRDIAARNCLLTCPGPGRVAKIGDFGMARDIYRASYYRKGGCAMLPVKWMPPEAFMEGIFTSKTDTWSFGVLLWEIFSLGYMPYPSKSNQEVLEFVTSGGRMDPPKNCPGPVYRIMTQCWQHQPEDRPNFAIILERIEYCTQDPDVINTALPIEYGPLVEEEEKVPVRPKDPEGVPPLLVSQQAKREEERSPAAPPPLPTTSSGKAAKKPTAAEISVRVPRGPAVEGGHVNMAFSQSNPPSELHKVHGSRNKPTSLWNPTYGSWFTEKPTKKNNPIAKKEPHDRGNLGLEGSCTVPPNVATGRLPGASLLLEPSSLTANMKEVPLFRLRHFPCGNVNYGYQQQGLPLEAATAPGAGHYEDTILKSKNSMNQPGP

Structure (SMILES) | GI50 [1] | IC50 [2] | IC50 [3] | IC50 [4] | GI50 [5] | GI50 [6] | GI50 [7] | GI50 [8] | GI50 [9] | GI50 [10]
Cc1ccc(NC(=O)c2cccc(C(F)(F)F)c2)cc1N1Cc2cnc(NCCN(C)C)nc2N(C)C1 [IA-2, N-(3-(7-((2-(dimethylamino)ethyl)amino)-1-methyl-1,4-dihydropyrimido[4,5-d]pyrimidin-3(2H)-yl)-4-methylphenyl)-3-(trifluoromethyl)benzamide] | > 10000 nM | 3380 nM | 3980 nM | 4540 nM | 1320 nM | 1590 nM | 1330 nM | ~2780 nM | 2560 nM | 
Cc1cc(Nc2ncc3c(n2)N(C)CN(c2cc(NC(=O)c4cccc(C(F)(F)F)c4)ccc2C)C3)n(C)n1 [IA-11, N-(3-(7-((1,3-dimethyl-1H-pyrazol-5-yl)amino)-1-methyl-1,4-dihydropyrimido[4,5-d]pyrimidin-3(2H)-yl)-4-methylphenyl)-3-(trifluoromethyl)benzamide] | 7.96 nM | 1020 nM | 1490 nM | 13500 nM | 927 nM | 736 nM | 2280 nM | 2220 nM | 1390 nM | 1760 nM
CCN(CC)c1ccc(Nc2ncc3c(n2)N(C)CN(c2cc(NC(=O)c4cccc(C(F)(F)F)c4)ccc2C)C3)cn1 [IA-12, N-(3-(7-((6-(diethylamino)pyridin-3-yl)amino)-1-methyl-1,4-dihydropyrimido[4,5-d]pyrimidin-3(2H)-yl)-4-methylphenyl)-3-(trifluoromethyl)benzamide] | 205 nM | 2300 nM | 1820 nM | 4110 nM | 1160 nM | 1350 nM | 977 nM | 3190 nM | 3070 nM | 4500 nM
Cc1ccc(NC(=O)c2cccc(C(F)(F)F)c2)cc1N1Cc2cnc(Nc3ccc(N4CCC(O)CC4)nc3)nc2N(C)C1 [IA-13, N-(3-(7-((6-(4-hydroxypiperidin-1-yl)pyridin-3-yl)amino)-1-methyl-1,4-dihydropyrimido[4,5-d]pyrimidin-3(2H)-yl)-4-methylphenyl)-3-(trifluoromethyl)benzamide] | 5.85 nM | 501 nM | 402 nM | 2340 nM | 132 nM | 289 nM | 320 nM | 1870 nM | 192 nM | 226 nM
Cc1ccc(NC(=O)c2cccc(C(F)(F)F)c2)cc1N1Cc2cnc(Nc3ccc(N4CCOCC4)nc3)nc2N(C)C1 [IA-15, N-(4-methyl-3-(1-methyl-7-((6-morpholinopyridin-3-yl)amino)-1,4-dihydropyrimido[4,5-d]pyrimidin-3(2H)-yl)phenyl)-3-(trifluoromethyl)benzamide] | 4.18 nM | 404 nM | 388 nM | 1770 nM | 264 nM | 355 nM | 902 nM | 1160 nM | 680 nM | 132 nM
COc1cc(C(=O)N2CCN(C)CC2)ccc1Nc1ncc2c(n1)N(C)CN(c1cc(NC(=O)c3cccc(C(F)(F)F)c3)ccc1C)C2 [IA-16, N-(3-(7-((2-methoxy-4-(4-methylpiperazine-1-carbonyl)phenyl)amino)-1-methyl-1,4-dihydropyrimido[4,5-d]pyrimidin-3(2H)-yl)-4-methylphenyl)-3-(trifluoromethyl)benzamide] | 1710 nM | 4410 nM | 4310 nM | 4420 nM | 2000 nM | 1580 nM | 3960 nM | 1540 nM | 2880 nM | 4370 nM
Cc1ccc(Nc2ncc3c(n2)N(C2CCCC2)CN(c2cc(NC(=O)c4cccc(C(F)(F)F)c4)ccc2C)C3)cn1 [IB-3, N-(3-(1-cyclopentyl-7-((6-methylpyridin-3-yl)amino)-1,4-dihydropyrimido[4,5-d]pyrimidin-3(2H)-yl)-4-methylphenyl)-3-(trifluoromethyl)benzamide] | 303 nM | 5970 nM | 5840 nM | 9710 nM | 3300 nM | 3820 nM |  | 5880 nM | 3150 nM | 9230 nM
